Assay results as given in patent publication US20200291018A1, “TAM KINASE INHIBITORS” (SYROS PHARMACEUTICALS, INC., priority 2017, published 2020).

Key:
MERTK = target: T1, MERTK (Homo sapiens, UniProt Q12866); assay: TR-FRET kinase activity assay, MERTK; assay type: biochemical; conditions: for IC50: TR-FRET activity assay, ATP at Km, 60 minutes, read-out: Mer IC50; for Mer/Flt3 ratio (FLT3 IC50/Mer IC50): ratio calculated as FLT3 IC50/Mer IC50
T1 sequence (Q12866 21-999): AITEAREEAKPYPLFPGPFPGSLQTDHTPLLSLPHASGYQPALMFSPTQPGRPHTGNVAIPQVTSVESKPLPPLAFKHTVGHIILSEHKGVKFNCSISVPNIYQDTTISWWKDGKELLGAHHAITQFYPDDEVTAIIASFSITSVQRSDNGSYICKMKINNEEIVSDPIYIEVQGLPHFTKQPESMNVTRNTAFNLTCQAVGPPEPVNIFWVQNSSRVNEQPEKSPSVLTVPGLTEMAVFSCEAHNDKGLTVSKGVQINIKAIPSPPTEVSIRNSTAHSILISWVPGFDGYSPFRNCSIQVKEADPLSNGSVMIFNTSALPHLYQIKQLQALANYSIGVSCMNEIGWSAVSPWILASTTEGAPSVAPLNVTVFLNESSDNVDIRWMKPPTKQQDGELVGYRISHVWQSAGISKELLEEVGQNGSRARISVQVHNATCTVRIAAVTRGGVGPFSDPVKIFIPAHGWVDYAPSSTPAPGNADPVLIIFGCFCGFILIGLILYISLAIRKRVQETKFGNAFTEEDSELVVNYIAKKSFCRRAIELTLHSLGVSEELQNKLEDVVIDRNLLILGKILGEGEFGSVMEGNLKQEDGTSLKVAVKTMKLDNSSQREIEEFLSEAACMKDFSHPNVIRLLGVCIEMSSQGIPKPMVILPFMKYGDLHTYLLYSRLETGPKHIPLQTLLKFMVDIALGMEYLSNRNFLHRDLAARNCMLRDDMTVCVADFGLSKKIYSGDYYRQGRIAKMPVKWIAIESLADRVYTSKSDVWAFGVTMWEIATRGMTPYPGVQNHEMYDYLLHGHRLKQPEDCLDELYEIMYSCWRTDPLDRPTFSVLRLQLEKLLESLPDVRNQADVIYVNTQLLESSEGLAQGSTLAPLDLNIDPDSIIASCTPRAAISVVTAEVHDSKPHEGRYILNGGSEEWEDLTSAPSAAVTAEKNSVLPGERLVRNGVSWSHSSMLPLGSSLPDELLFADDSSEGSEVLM
How it was run: (§1)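 TR-FRET signal from Eu-labeled phospho-site antibody bound to tyrosine-phosphorylated fluorescent peptide; inhibition lowers signal, giving IC50. Reactions: 50 mM HEPES pH 7.5, 10 mM MgCl2, 1 mM EGTA, 0.01% Brij 35, 1 mM DTT, ATP at Km per enzyme, 60 min, RT.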

TYRO3 = target: T2, TYRO3 (Homo sapiens, UniProt Q06418); assay: TR-FRET kinase activity assay, TYRO3; assay type: biochemical; conditions: ATP at Km, 60 minutes
T2 sequence (Q06418 41-890): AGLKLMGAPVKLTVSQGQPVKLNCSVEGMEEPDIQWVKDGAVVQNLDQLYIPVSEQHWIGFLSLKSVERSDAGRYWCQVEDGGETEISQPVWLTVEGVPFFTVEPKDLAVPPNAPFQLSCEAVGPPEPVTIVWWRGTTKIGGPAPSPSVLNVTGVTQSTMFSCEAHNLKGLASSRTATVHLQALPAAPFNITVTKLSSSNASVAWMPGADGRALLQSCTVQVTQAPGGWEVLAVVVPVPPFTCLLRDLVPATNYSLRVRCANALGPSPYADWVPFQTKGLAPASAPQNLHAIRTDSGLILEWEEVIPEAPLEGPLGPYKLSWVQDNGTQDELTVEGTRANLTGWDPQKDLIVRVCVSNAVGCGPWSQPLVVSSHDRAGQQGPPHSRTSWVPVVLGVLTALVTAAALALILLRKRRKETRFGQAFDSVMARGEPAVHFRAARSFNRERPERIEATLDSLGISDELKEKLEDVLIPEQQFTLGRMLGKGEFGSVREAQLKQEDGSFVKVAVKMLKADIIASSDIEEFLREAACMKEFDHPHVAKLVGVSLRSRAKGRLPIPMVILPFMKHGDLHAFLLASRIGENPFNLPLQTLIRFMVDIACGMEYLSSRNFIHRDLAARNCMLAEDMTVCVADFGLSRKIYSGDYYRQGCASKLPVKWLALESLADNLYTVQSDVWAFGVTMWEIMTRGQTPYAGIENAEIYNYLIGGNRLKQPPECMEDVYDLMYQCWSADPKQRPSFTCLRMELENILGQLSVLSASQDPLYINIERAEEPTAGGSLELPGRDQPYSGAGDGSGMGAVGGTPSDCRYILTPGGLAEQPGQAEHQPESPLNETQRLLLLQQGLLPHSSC
How it was run: as §1

Row | SMILES | IC50 (MERTK) | Mer/Flt3 ratio (FLT3 IC50/Mer IC50) (MERTK) | IC50 (TYRO3)
1 | COCCN1C(C)(C)CC(Oc2ncc([C@H]3CC[C@H](O)CC3)c3nc(N[C@@H]4CCOC4)ncc23)CC1(C)C [Compound 390] | ≤ 0.1 µM | ++ (a ratio of between 10 and 100) | 0.1 to 1 µM
2 | CCN1C(C)(C)CC(Oc2ncc([C@H]3CC[C@H](O)CC3)c3nc(N[C@@H](C)CC(F)(F)F)ncc23)CC1(C)C [Compound 391] | ≤ 0.1 µM | +++ (a ratio of >100) | ≤ 0.1 µM
3 | O[C@H]1CC[C@H](c2cnc(OC3CCOCC3)c3cnc(Nc4ccc(-c5nn[nH]n5)cc4)nc32)CC1 [Compound 392] | ≤ 0.1 µM | +++ (a ratio of >100) | ≤ 0.1 µM
4 | COC[C@H](C)Nc1ncc2c(O[C@H]3C[C@@H](C(=O)N4CCN(C)CC4)C3)ncc([C@H]3CC[C@H](O)CC3)c2n1 [Compound 393] | ≤ 0.1 µM | +++ (a ratio of >100) | ≤ 0.1 µM
5 | C[C@@H](Nc1ncc2c(OC3CCOCC3)ncc([C@H]3CC[C@H](O)CC3)c2n1)C(F)F [Compound 394] | ≤ 0.1 µM | +++ (a ratio of >100) | 0.1 to 1 µM
6 | COC[C@H](C)Nc1ncc2c(OC3CCOCC3)ncc(-c3ccc(F)cc3)c2n1 [Compound 395] | 0.1 to 1 µM | ++ (a ratio of between 10 and 100) | 1 to 10 µM
7 | COC[C@H](C)Nc1ncc2c(OC3CCOCC3)ncc(-c3ccc(C#N)cc3)c2n1 [Compound 396] | ≤ 0.1 µM | +++ (a ratio of >100) | 0.1 to 1 µM
8 | O=C(O)c1ccc(Nc2ncc3c(OC4CCOCC4)ncc([C@H]4CC[C@H](O)CC4)c3n2)cc1 [Compound 397] | ≤ 0.1 µM | ++ (a ratio of between 10 and 100) | ≤ 0.1 µM
9 | CNC(=O)c1ccc(Nc2ncc3c(OC4CCOCC4)ncc([C@H]4CC[C@H](O)CC4)c3n2)cc1 [Compound 398] | ≤ 0.1 µM | + (a ratio of >2.0 and <10) | ≤ 0.1 µM
10 | NC(=O)c1ccc(Nc2ncc3c(OC4CCOCC4)ncc([C@H]4CC[C@H](O)CC4)c3n2)cc1 [Compound 399] | ≤ 0.1 µM | NS (a ratio of ≤2.0) | ≤ 0.1 µM
11 | COC[C@H](C)Nc1ncc2c(OC3CCOCC3)ncc(-c3ccc(S(C)(=O)=O)cc3)c2n1 [Compound 400] | 0.1 to 1 µM | ++ (a ratio of between 10 and 100) | 0.1 to 1 µM
12 | C[C@H](CF)Nc1ncc2c(OC3CCOCC3)ncc([C@H]3CC[C@H](O)CC3)c2n1 [Compound 401] | ≤ 0.1 µM | +++ (a ratio of >100) | 0.1 to 1 µM
13 | C[C@@H](CC(F)(F)F)Nc1ncc2c(O[C@H]3C[C@@H](CN4CCOCC4)C3)ncc([C@H]3CC[C@H](O)CC3)c2n1 [Compound 402] | ≤ 0.1 µM | +++ (a ratio of >100) | ≤ 0.1 µM
14 | COC[C@H](C)Nc1ncc2c(C(F)(F)F)ncc([C@H]3CC[C@H](O)CC3)c2n1 [Compound 403] | 0.1 to 1 µM | ++ (a ratio of between 10 and 100) | 1 to 10 µM
15 | CC1(Nc2ncc3c(OC4CCOCC4)ncc(-c4cccc(NS(C)(=O)=O)c4)c3n2)CC1 [Compound 404] | ≤ 0.1 µM | ++ (a ratio of between 10 and 100) | 0.1 to 1 µM
16 | CC1(Nc2ncc3c(OC4CCOCC4)ncc(-c4cccc(S(=O)(=O)N5CCC5)c4)c3n2)CC1 [Compound 405] | ≤ 0.1 µM | +++ (a ratio of >100) | 0.1 to 1 µM
17 | C[C@H](CC(F)(F)F)Nc1ncc2c(O[C@H]3C[C@@H](O)C3)ncc([C@H]3CC[C@H](O)CC3)c2n1 [Compound 406] | ≤ 0.1 µM | +++ (a ratio of >100) | ≤ 0.1 µM
18 | C[C@@H](COC(F)F)Nc1ncc2c(O[C@H]3C[C@@H](O)C3)ncc([C@H]3CC[C@H](O)CC3)c2n1 [Compound 407] | ≤ 0.1 µM | +++ (a ratio of >100) | ≤ 0.1 µM
19 | C[C@@H](CC(F)(F)F)Nc1ncc2c(O[C@H]3C[C@@H](N4CCOCC4)C3)ncc([C@H]3CC[C@H](O)CC3)c2n1 [Compound 408] | ≤ 0.1 µM | +++ (a ratio of >100) | ≤ 0.1 µM
20 | C[C@@H](CC(F)(F)F)Nc1ncc2c(O[C@H]3C[C@@H](O)C3)ncc(-c3ccc(C4(C#N)CC4)cc3)c2n1 [Compound 409] | ≤ 0.1 µM | ++ (a ratio of between 10 and 100) | ≤ 0.1 µM
21 | O=C(O)[C@H]1CC[C@H](Nc2ncc3c(OC4CCOCC4)ncc([C@H]4CC[C@H](O)CC4)c3n2)CC1 [Compound 410] | ≤ 0.1 µM | +++ (a ratio of >100) | 0.1 to 1 µM
22 | C[C@H](Nc1ncc2c(O[C@H]3C[C@@H](O)C3)ncc([C@H]3CC[C@H](O)CC3)c2n1)C(F)F [Compound 411] | ≤ 0.1 µM | +++ (a ratio of >100) | ≤ 0.1 µM
23 | C[C@@H](CC(F)(F)F)Nc1ncc2c(O[C@@H]3C[C@H]4CC[C@@H](C3)N4C[C@H]3CCCO3)ncc([C@H]3CC[C@H](O)CC3)c2n1 [Compound 412] | ≤ 0.1 µM | +++ (a ratio of >100) | ≤ 0.1 µM
24 | C[C@@H](CC(F)(F)F)Nc1ncc2c(O[C@@H]3C[C@H]4CC[C@@H](C3)N4[C@H]3CCOC3)ncc([C@H]3CC[C@H](O)CC3)c2n1 [Compound 413] | ≤ 0.1 µM | +++ (a ratio of >100) | ≤ 0.1 µM
25 | C[C@@H](CC(F)(F)F)Nc1ncc2c(O[C@@H]3C[C@H]4CC[C@@H](C3)N4C[C@H]3CCOC3)ncc([C@H]3CC[C@H](O)CC3)c2n1 [Compound 414] | ≤ 0.1 µM | +++ (a ratio of >100) | ≤ 0.1 µM
